Measurements taken from US6916616B2, “Stabilized aqueous nucleoside triphosphate solutions” (priority 1996, dated 2005).

How the values were obtained:
Assay type in all cases: physicochemical
[1] = Stress experiments of d-NTP solutions at 35° C., triphosphate content by HPLC; settings: pH 8.3 compared to pH 7.5, 35° C., three independent stress experiments, samples between 7 and 89 days
Method: d-NTP solutions at a concentration of 100 to 110 mmol/l were adjusted to pH values between 7.5 and 8.3 with sodium hydroxide solution. The sample was stored at 35° C., 22° C., 4° C. and −20° C. Aliquots were removed at various time points and the purity was examined by means of HPLC. The relative amount of the tri, di and monophosphate as well as of the free base was determined by integrating the areas. The stabilization was estimated by the following formula from three independent stress experiments of d-NTPs at pH 8.3 and 7.5 at 35° C. in which samples were taken at intervals between 7 and 89 days. Δ content (pH 8.3)−Δ content (7.5)×100 Δ content (pH 7.5) in which Δ content (pH . . . )=content (t=0)−content (t)

[2] = Determination of the pH optimum of the d-NTPs (35 days at 35° C., HPLC); settings: 100 to 110 mmol/l
Method: d-NTP solutions (dCTP, dTTP, dUTP) at a concentration of 100 to 110 mmol/l were adjusted to pH values between 7.5 and 12 (d-ATP, dGTP not pH 7.9 and 8.3) with sodium hydroxide solution. The sample was stressed for 35 days at 35° C. and subsequently the purity was examined by means of HPLC. The relative amount of the tri, di and monophosphate as well as of the free base was determined by integrating the areas.

[3] = Stabilization at room temperature (real-time model, 204 days, 20° C.); settings: for difference in decrease of triphosphate content pH 8.3 vs pH 7.5: 204 days
Method: d-NTP solutions at a concentration of 100 to 110 mmol/l were adjusted to pH values between 7.5 and 8.3 with sodium hydroxide solution. The sample was stored at 35° C., 22° C., 4° C. and −20° C. Aliquots were removed at various time points and the purity was examined by means of HPLC. The relative amount of the tri, di and monophosphate as well as of the free base was determined by integrating the areas.
After 204 days (20° C.) the difference in the pH stabilization became apparent (in the real-time model). […] In the case of d-GTP solutions the triphosphate content decreased for example by ca. 6.8% at pH 7.5 and by ca. 5.2% at pH 8.3 (difference 23%).

Row | Structure (SMILES) | stabilization, average value [1] [%] | stabilization, maximum value [1] [%] | stabilization, minimum value [1] [%] | degradation up to pH 12 [2] | difference in decrease of triphosphate content pH 8.3 vs pH 7.5 [3] [%] | decrease of triphosphate content ([3]; pH 7.5, 204 days) | decrease of triphosphate content ([3]; pH 8.3, 204 days)
1 | Nc1ccn([C@H]2C[C@H](O)[C@@H](COP(=O)(O)OP(=O)(O)OP(=O)(O)O)O2)c(=O)n1 [d-CTP] | 20 | 37 | 10 | deaminated at pH 12 to form d-UTP |  |  | 
2 | Nc1ncnc2c1ncn2[C@H]1C[C@H](O)[C@@H](COP(=O)(O)OP(=O)(O)OP(=O)(O)O)O1 [d-ATP] | 19 | 33 | 9 |  | 17 | ca. 7.6% | ca. 6.3%
3 | Nc1nc2c(ncn2[C@H]2C[C@H](O)[C@@H](COP(=O)(O)OP(=O)(O)OP(=O)(O)O)O2)c(=O)[nH]1 [d-GTP] | 21 | 30 | 12 |  | 23 | ca. 6.8% | ca. 5.2%

Continued, values first:

Row | stabilization, average value [1] [%] | stabilization, maximum value [1] [%] | stabilization, minimum value [1] [%] | degradation up to pH 12 [2] | difference in decrease of triphosphate content pH 8.3 vs pH 7.5 [3] [%] | decrease of triphosphate content ([3]; pH 7.5, 204 days) | decrease of triphosphate content ([3]; pH 8.3, 204 days) | Structure (SMILES)
4 | 5 | 15 | 25 |  |  |  |  | O=c1ccn([C@H]2C[C@H](O)[C@@H](COP(=O)(O)OP(=O)(O)OP(=O)(O)O)O2)c(=O)[nH]1 [d-UTP]
5 | 5 | 17 | 26 |  |  |  |  | Cc1cn([C@H]2C[C@H](O)[C@@H](COP(=O)(O)OP(=O)(O)OP(=O)(O)O)O2)c(=O)[nH]c1=O [d-TTP]
